# Laboratory results published in PubChem BioAssay AID1963965 (Molecular Pharmacology Branch, DTP, NCI, 2024).
# pIC50: −log10 of the molar value.
# Test system: 996289-038-R-J1-PDC spheroid viability
# Test: Anticancer human tumor 996289-038-R-J1-PDC patient-derived colon adenocarcinoma cell line growth inhibition [PI3K]
# Conditions: spheroids with HUVEC and MSC; for pIC50: curve of first compound; for viability, T/C: stronger effect = lower value
# How it was run: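 Tumor cells were combined with HUVEC and MSCs into spheroids, then dosed with PI3K-inhibitor combinations over half-log ranges capped near clinical Cmax or 10 microM.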
# [1] = second compound 0.0316 µM, first compound 0.0316 µM
# [2] = second compound 0.0316 µM, first compound 0.1 µM
# [3] = second compound 0.0316 µM, first compound 0.316 µM
# [4] = second compound 0.0316 µM, first compound 1 µM
# [5] = second compound 0.0316 µM, first compound 3.16 µM
# [6] = second compound 0.0316 µM, first compound 10 µM
# [7] = second compound 0.1 µM, first compound 0.0316 µM
# [8] = second compound 0.1 µM, first compound 0.1 µM
# [9] = second compound 0.1 µM, first compound 0.316 µM
# [10] = second compound 0.1 µM, first compound 1 µM
# [11] = second compound 0.1 µM, first compound 3.16 µM
# [12] = second compound 0.1 µM, first compound 10 µM
# [13] = second compound 0.316 µM, first compound 0.0316 µM
# [14] = second compound 0.316 µM, first compound 0.1 µM
# [15] = second compound 0.316 µM, first compound 0.316 µM
# [16] = second compound 0.316 µM, first compound 1 µM
# [17] = second compound 0.316 µM, first compound 3.16 µM
# [18] = second compound 0.316 µM, first compound 10 µM
# [19] = second compound 1 µM, first compound 0.0316 µM
# [20] = second compound 1 µM, first compound 0.1 µM
# [21] = second compound 1 µM, first compound 0.316 µM
# [22] = second compound 1 µM, first compound 1 µM
# [23] = second compound 1 µM, first compound 3.16 µM
# [24] = second compound 1 µM, first compound 10 µM
# [25] = second compound 3.16 µM, first compound 0.0316 µM
# [26] = second compound 3.16 µM, first compound 0.1 µM
# [27] = second compound 3.16 µM, first compound 0.316 µM
# [28] = second compound 3.16 µM, first compound 1 µM
# [29] = second compound 3.16 µM, first compound 3.16 µM
# [30] = second compound 3.16 µM, first compound 10 µM
# [31] = second compound 10 µM, first compound 0.0316 µM
# [32] = second compound 10 µM, first compound 0.1 µM
# [33] = second compound 10 µM, first compound 0.316 µM
# [34] = second compound 10 µM, first compound 1 µM
# [35] = second compound 10 µM, first compound 3.16 µM
# [36] = second compound 10 µM, first compound 10 µM
# 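Also: spheroids exposed to compounds for seven days before viability read.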
# 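For viability, T/C in this document: luminescence used as a proxy for viable cell amount; percent viability relative to DMSO vehicle control as 100%.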
structure (smiles),measurement,setting,value
CC1(C)CCC(CN2CCN(c3ccc(C(=O)NS(=O)(=O)c4ccc(NCC5CCOCC5)c([N+](=O)[O-])c4)c(Oc4cnc5[nH]ccc5c4)c3)CC2)=C(c2ccc(Cl)cc2)C1 + CC(Nc1ncnc2nc[nH]c12)c1cc2cccc(Cl)c2c(=O)n1-c1ccccc1,pIC50,second compound 0.0316 µM,< 5.00
same,pIC50,second compound 0.1 µM,< 5.00
same,pIC50,second compound 0.316 µM,< 5.00
same,pIC50,second compound 1 µM,< 5.00
same,pIC50,second compound 3.16 µM,5.02
same,pIC50,second compound 10 µM,< 5.00
same,"viability, T/C",[1],105%
same,"viability, T/C",[2],86.3%
same,"viability, T/C",[3],106%
same,"viability, T/C",[4],103%
same,"viability, T/C",[5],114%
same,"viability, T/C",[6],65%
same,"viability, T/C",[7],108%
same,"viability, T/C",[8],96.9%
same,"viability, T/C",[9],99.4%
same,"viability, T/C",[10],119%
same,"viability, T/C",[11],128%
same,"viability, T/C",[12],67%
same,"viability, T/C",[13],111%
same,"viability, T/C",[14],96.3%
same,"viability, T/C",[15],104%
same,"viability, T/C",[16],101%
same,"viability, T/C",[17],112%
same,"viability, T/C",[18],60.9%
same,"viability, T/C",[19],102%
same,"viability, T/C",[20],88.7%
same,"viability, T/C",[21],103%
same,"viability, T/C",[22],114%
same,"viability, T/C",[23],124%
same,"viability, T/C",[24],63.1%
same,"viability, T/C",[25],109%
same,"viability, T/C",[26],92.3%
same,"viability, T/C",[27],102%
same,"viability, T/C",[28],107%
same,"viability, T/C",[29],112%
same,"viability, T/C",[30],47.7%
same,"viability, T/C",[31],88.4%
same,"viability, T/C",[32],88.9%
same,"viability, T/C",[33],85.7%
same,"viability, T/C",[34],102%
same,"viability, T/C",[35],108%
same,"viability, T/C",[36],54.6%
CC(Cn1ccc(-c2ccc(C#N)c(Cl)c2)n1)NC(=O)c1cc(C(C)O)[nH]n1 (stereo not given) + Cc1nc(NC(=O)N2CCCC2C(N)=O)sc1-c1ccnc(C(C)(C)C(F)(F)F)c1,pIC50,second compound 0.0316 µM,< 5.00
same,pIC50,second compound 0.1 µM,< 5.00
same,pIC50,second compound 0.316 µM,< 5.00
same,pIC50,second compound 1 µM,< 5.00
same,pIC50,second compound 3.16 µM,< 5.00
same,pIC50,second compound 10 µM,> 7.50
same,"viability, T/C",[1],84%
same,"viability, T/C",[2],86.7%
same,"viability, T/C",[3],95.2%
same,"viability, T/C",[4],109%
same,"viability, T/C",[5],98.9%
same,"viability, T/C",[6],91.8%
same,"viability, T/C",[7],96.6%
same,"viability, T/C",[8],89.7%
same,"viability, T/C",[9],97.8%
same,"viability, T/C",[10],94.4%
same,"viability, T/C",[11],92.4%
same,"viability, T/C",[12],92.3%
same,"viability, T/C",[13],95.8%
same,"viability, T/C",[14],85.3%
same,"viability, T/C",[15],85%
same,"viability, T/C",[16],77.3%
same,"viability, T/C",[17],78.3%
same,"viability, T/C",[18],85.3%
same,"viability, T/C",[19],68.8%
same,"viability, T/C",[20],82.4%
same,"viability, T/C",[21],80.9%
same,"viability, T/C",[22],89.9%
same,"viability, T/C",[23],77%
same,"viability, T/C",[24],69.3%
same,"viability, T/C",[25],58.5%
same,"viability, T/C",[26],55.8%
same,"viability, T/C",[27],66.6%
same,"viability, T/C",[28],66.7%
same,"viability, T/C",[29],72.7%
same,"viability, T/C",[30],50.9%
same,"viability, T/C",[31],49%
same,"viability, T/C",[32],43.1%
same,"viability, T/C",[33],48.9%
same,"viability, T/C",[34],42.3%
same,"viability, T/C",[35],43.1%
same,"viability, T/C",[36],46.4%
Cn1ncc(Cl)c1-c1cc(C(=O)NC(CN)Cc2cccc(F)c2)sc1Cl (stereo not given) + CC(Nc1ncnc2nc[nH]c12)c1cc2cccc(Cl)c2c(=O)n1-c1ccccc1,pIC50,second compound 0.0316 µM,< 5.00
same,pIC50,second compound 0.1 µM,< 5.00
same,pIC50,second compound 0.316 µM,< 5.00
same,pIC50,second compound 1 µM,5.03
same,pIC50,second compound 3.16 µM,5.10
same,pIC50,second compound 10 µM,5.29
same,"viability, T/C",[1],92.2%
same,"viability, T/C",[2],92.1%
same,"viability, T/C",[3],81.2%
same,"viability, T/C",[4],71.6%
same,"viability, T/C",[5],70.6%
same,"viability, T/C",[6],61.2%
same,"viability, T/C",[7],102%
same,"viability, T/C",[8],88.5%
same,"viability, T/C",[9],83.5%
same,"viability, T/C",[10],73.9%
same,"viability, T/C",[11],69.1%
same,"viability, T/C",[12],54.2%
same,"viability, T/C",[13],102%
same,"viability, T/C",[14],98.8%
same,"viability, T/C",[15],85.2%
same,"viability, T/C",[16],73.3%
same,"viability, T/C",[17],69.7%
same,"viability, T/C",[18],49.3%
same,"viability, T/C",[19],108%
same,"viability, T/C",[20],97.5%
same,"viability, T/C",[21],90.2%
same,"viability, T/C",[22],91.7%
same,"viability, T/C",[23],71.2%
same,"viability, T/C",[24],48.3%
same,"viability, T/C",[25],85.6%
same,"viability, T/C",[26],94%
same,"viability, T/C",[27],88.6%
same,"viability, T/C",[28],85%
same,"viability, T/C",[29],67.6%
same,"viability, T/C",[30],45.7%
same,"viability, T/C",[31],84.1%
same,"viability, T/C",[32],91.2%
same,"viability, T/C",[33],92%
same,"viability, T/C",[34],79%
same,"viability, T/C",[35],58.1%
same,"viability, T/C",[36],39.2%
CCCS(=O)(=O)Nc1ccc(F)c(C(=O)c2c[nH]c3ncc(-c4ccc(Cl)cc4)cc23)c1F,"viability, T/C",compound 0.0316 µM,106% [middle of 4 runs]
same,"viability, T/C",compound 0.1 µM,93.7% [middle of 4 runs]
same,"viability, T/C",compound 0.316 µM,100% [middle of 4 runs]
same,"viability, T/C",compound 1 µM,94.5% [middle of 4 runs]
same,"viability, T/C",compound 3.16 µM,96.8% [middle of 4 runs]
same,"viability, T/C",compound 10 µM,23.3% [middle of 4 runs]
same,IC50,curve of compound,6.53 µM [middle of 4 runs]
C[C@@H](NC(=O)c1ncnc(N)c1Cl)c1ncc(C(=O)Nc2cc(C(F)(F)F)c(Cl)cn2)s1 + CC(Nc1ccc2c(c1)OCCn1cc(N3C(=O)OCC3C(F)F)nc1-2)C(N)=O,pIC50,second compound 0.00316 µM,< 5.00
same,pIC50,second compound 0.01 µM,< 5.00
same,pIC50,second compound 0.0316 µM,< 5.00
same,pIC50,second compound 0.1 µM,< 5.00
same,pIC50,second compound 0.316 µM,< 5.00
same,pIC50,second compound 1 µM,< 5.00
same,"viability, T/C","second compound 0.00316 µM, first compound 0.0316 µM",115%
same,"viability, T/C","second compound 0.00316 µM, first compound 0.1 µM",124%
same,"viability, T/C","second compound 0.00316 µM, first compound 0.316 µM",129%
same,"viability, T/C","second compound 0.00316 µM, first compound 1 µM",123%
same,"viability, T/C","second compound 0.00316 µM, first compound 3.16 µM",135%
same,"viability, T/C","second compound 0.00316 µM, first compound 10 µM",122%
same,"viability, T/C","second compound 0.01 µM, first compound 0.0316 µM",119%
same,"viability, T/C","second compound 0.01 µM, first compound 0.1 µM",124%
same,"viability, T/C","second compound 0.01 µM, first compound 0.316 µM",107%
same,"viability, T/C","second compound 0.01 µM, first compound 1 µM",139%
same,"viability, T/C","second compound 0.01 µM, first compound 3.16 µM",140%
same,"viability, T/C","second compound 0.01 µM, first compound 10 µM",122%
same,"viability, T/C",[1],116%
same,"viability, T/C",[2],103%
same,"viability, T/C",[3],111%
same,"viability, T/C",[4],120%
same,"viability, T/C",[5],128%
same,"viability, T/C",[6],111%
same,"viability, T/C",[7],93.7%
same,"viability, T/C",[8],93.1%
same,"viability, T/C",[9],91.7%
same,"viability, T/C",[10],119%
same,"viability, T/C",[11],107%
same,"viability, T/C",[12],110%
same,"viability, T/C",[13],70%
same,"viability, T/C",[14],87.6%
same,"viability, T/C",[15],87.2%
same,"viability, T/C",[16],105%
same,"viability, T/C",[17],109%
same,"viability, T/C",[18],83.3%
same,"viability, T/C",[19],68%
same,"viability, T/C",[20],78.1%
same,"viability, T/C",[21],57.8%
same,"viability, T/C",[22],81.9%
same,"viability, T/C",[23],85.6%
same,"viability, T/C",[24],65.3%
